Source: ChEMBL document CHEMBL5120865, “Exploration of 6-methyl-7-(Hetero)Aryl-7-Deazapurine ribonucleosides as antileishmanial agents” (Eur J Med Chem, 2022)

Assays:
[1] = test system: Leishmania infantum; assay: Antileishmanial activity against intracellular Leishmania infantum MHOM/MA(BE)/67 ITMAP263 amastigotes infected in Swiss mouse peritoneal macrophage assessed as inhibition of parasite growth measured after 5 days by geimsa staining based microscopic analysis; type: functional, organism-based; conditions: MHOM/MA(BE)/67 ITMAP263, Peritoneal macrophage, 120 h
[2] = Cytotoxicity against Swiss mouse peritoneal macrophages assessed as reduction in cell viability measured after 5 days by microscopic analysis; type: toxicity, cell-based, Peritoneal macrophage; conditions: time 5 day
[3] = Cytotoxicity against human MRC5 cells assessed as reduction in cell viability incubated for 3 days by resazurin dye based fluorescence analysis; type: toxicity; conditions: time 3 day
[4] = Selectivity index, ratio of CC50 for Cytotoxicity against Swiss mouse peritoneal macrophages to EC50 for intracellular Leishmania infantum MHOM/MA(BE)/67 ITMAP263 amastigotes infected in Swiss mouse peritoneal macrophages; type: toxicity, cell-based; conditions: read-out: Ratio CC50/EC50
[5] = test system: Trypanosoma cruzi; assay: Antitrypanosomal activity against nifurtimox-sensitive Tulahuen CL2 amastigotes expressing beta galactosidase infected in human MRC5 cells assessed as inhibition of parasite growth using chlorophenol red beta-D-galactopyranoside as substrate and measured after 7 days by spectrophotometric analysis; type: functional, organism-based; conditions: Tulahuen CL2, MRC5, 168 h
[6] = Selectivity index, ratio of CC50 for cytotoxicity against human MRC5 cells to EC50 for Trypanosoma cruzi Tulahuen CL2 amastigotes expressing beta galactosidase infected in human MRC5 cells; type: toxicity, cell-based; conditions: read-out: Ratio CC50/EC50

SMILES	EC50 [1] [µM]	CC50 at 120 h [2] [µM]	CC50 at 72 h [3] [µM]	selectivity ratio [4]	EC50 ([5]; read-out: EC50) [µM]	selectivity ratio [6]	EC50 [5] [µM]
Cc1ncnc2c1c(-c1ccoc1)cn2[C@@H]1O[C@H](CO)[C@@H](O)[C@H]1O	> 64	> 64	> 64	–	–	–	–
Cc1ncnc2c1c(-c1cccs1)cn2[C@@H]1O[C@H](CO)[C@@H](O)[C@H]1O	12.7	32	–	2.5	–	–	–
Cc1ncnc2c1c(-c1ccsc1)cn2[C@@H]1O[C@H](CO)[C@@H](O)[C@H]1O	> 64	> 64	> 64	–	–	–	–
Cc1ncnc2c1c(-c1cc3ccccc3o1)cn2[C@@H]1O[C@H](CO)[C@@H](O)[C@H]1O	20.3	32	45.8	1.58	–	–	–
Cc1ncnc2c1c(-c1ccccn1)cn2[C@@H]1O[C@H](CO)[C@@H](O)[C@H]1O	2.3	> 64	> 64	> 27	1.6	> 39	–
Cc1ncnc2c1c(-c1cnccn1)cn2[C@@H]1O[C@H](CO)[C@@H](O)[C@H]1O	10.1	> 64	> 64	> 6.3	–	–	–
Cc1ncnc2c1c(-c1ccc(Cl)nc1)cn2[C@@H]1O[C@H](CO)[C@@H](O)[C@H]1O	> 64	> 64	> 64	–	–	–	–
COc1ccccc1-c1cn([C@@H]2O[C@H](CO)[C@@H](O)[C@H]2O)c2ncnc(C)c12	21.1	> 64	> 64	> 3	–	–	–
Cc1ncnc2c1c(-c1ccc[nH]1)cn2[C@@H]1O[C@H](CO)[C@@H](O)[C@H]1O	0.35	32	12.9	91.4	0.68	19	–
Cc1ncnc2c1c(-c1ccccc1N)cn2[C@@H]1O[C@H](CO)[C@@H](O)[C@H]1O	> 64	> 64	> 64	–	–	–	–
Cc1ncnc2c1c(-c1ccccc1[N+](=O)[O-])cn2[C@@H]1O[C@H](CO)[C@@H](O)[C@H]1O	> 64	> 64	> 64	–	–	–	–
COc1ccnc(-c2cn([C@@H]3O[C@H](CO)[C@@H](O)[C@H]3O)c3ncnc(C)c23)c1	> 64	> 64	> 64	–	–	–	–
Cc1ncnc2c1c(-c1ccc(Cl)c(F)c1)cn2[C@@H]1O[C@H](CO)[C@@H](O)[C@H]1O	7.9	> 64	–	> 8	–	–	–
Cc1ncnc2c1c(/C=C/c1ccccn1)cn2[C@@H]1O[C@H](CO)[C@@H](O)[C@H]1O	19	> 64	> 64	> 3.37	–	–	–
Cc1ncnc2c1c(-c1ccc(Cl)cc1)cn2[C@@H]1O[C@H](CO)[C@@H](O)[C@H]1O	16.1	> 64	–	> 3.5	–	–	–
Cc1ncnc2c1c(Sc1ccccc1)cn2[C@@H]1O[C@H](CO)[C@@H](O)[C@H]1O	> 64	> 64	> 64	–	–	–	–
Cc1ncnc2c1c(CCc1ccccn1)cn2[C@@H]1O[C@H](CO)[C@@H](O)[C@H]1O	> 64	> 64	> 64	–	–	–	–
Cc1ncnc2c1c(-c1cccnc1)cn2[C@@H]1O[C@H](CO)[C@@H](O)[C@H]1O	22.6	> 64	> 64	> 2.8	–	–	–
Cc1ncnc2c1c(-c1cccc(F)n1)cn2[C@@H]1O[C@H](CO)[C@@H](O)[C@H]1O	> 64	> 64	> 64	–	–	–	–
COc1cc(-c2cn([C@@H]3O[C@H](CO)[C@@H](O)[C@H]3O)c3ncnc(C)c23)ccc1Cl	8.76	> 64	–	> 7.3	–	–	–

SMILES	EC50 [1] [µM]	CC50 at 120 h [2] [µM]	CC50 at 72 h [3] [µM]	selectivity ratio [4]	EC50 ([5]; read-out: EC50) [µM]	selectivity ratio [6]	EC50 [5] [µM]
Cc1ncnc2c1c(-c1cc3ccccc3cn1)cn2[C@@H]1O[C@H](CO)[C@@H](O)[C@H]1O	> 64	> 64	> 64	–	–	–	–
Cc1ncnc2c1c(-c1cccc3ccn(C)c13)cn2[C@@H]1O[C@H](CO)[C@@H](O)[C@H]1O	> 64	> 64	> 64	–	–	–	–
Cc1ncnc2c1c(-c1ccc(C(F)(F)F)cc1)cn2[C@@H]1O[C@H](CO)[C@@H](O)[C@H]1O	11.3	> 64	–	> 5.6	–	–	–
CSc1ccccc1-c1cn([C@@H]2O[C@H](CO)[C@@H](O)[C@H]2O)c2ncnc(C)c12	> 64	> 64	> 64	–	–	–	–
Cc1ncnc2c1c(C1=CCOCC1)cn2[C@@H]1O[C@H](CO)[C@@H](O)[C@H]1O	24.5	> 64	–	–	–	–	–
Cc1ncnc2c1c(-c1cccc3c1oc1ccccc13)cn2[C@@H]1O[C@H](CO)[C@@H](O)[C@H]1O	50.8	> 64	12.7	> 1.2	–	–	–
Cc1ncnc2c1c(-c1cncnc1)cn2[C@@H]1O[C@H](CO)[C@@H](O)[C@H]1O	6.5	> 64	> 64	> 9.9	7.3	> 8.8	–
Cc1ncnc2c1c(-c1ccc(N)cc1)cn2[C@@H]1O[C@H](CO)[C@@H](O)[C@H]1O	6.7	> 64	–	> 9.5	–	–	–
Cc1ncnc2c1c(-c1ccc(S(C)(=O)=O)cc1)cn2[C@@H]1O[C@H](CO)[C@@H](O)[C@H]1O	6.7	> 64	–	> 9.5	–	–	–
Cc1ncnc2c1c(-c1cc[nH]n1)cn2[C@@H]1O[C@H](CO)[C@@H](O)[C@H]1O	8	> 64	27.9	> 8	–	–	–
Cc1ncnc2c1c(-c1cccc(Cl)n1)cn2[C@@H]1O[C@H](CO)[C@@H](O)[C@H]1O	14.2	> 64	> 64	> 4.51	–	–	–
Cc1ncnc2c1c(-c1ccc(Cl)cn1)cn2[C@@H]1O[C@H](CO)[C@@H](O)[C@H]1O	0.4	> 64	26.3	> 160	0.49	53	–
Cc1ncnc2c1c(-c1ccncc1)cn2[C@@H]1O[C@H](CO)[C@@H](O)[C@H]1O	> 64	> 64	> 64	–	–	–	–
Cc1ncnc2c1c(-c1ccccc1F)cn2[C@@H]1O[C@H](CO)[C@@H](O)[C@H]1O	> 64	> 64	> 64	–	–	–	–
Cc1ncnc2c1c(-c1ccc3ccccc3n1)cn2[C@@H]1O[C@H](CO)[C@@H](O)[C@H]1O	> 64	> 64	> 64	–	–	–	–
Cc1ncnc2c1c(-c1ncccn1)cn2[C@@H]1O[C@H](CO)[C@@H](O)[C@H]1O	8.2	> 64	> 64	> 7.8	5.9	> 10	–
Cc1ncnc2c1c(-c1ccccc1Cl)cn2[C@@H]1O[C@H](CO)[C@@H](O)[C@H]1O	20.4	> 64	> 64	> 3.1	–	–	–
Cc1ncnc2c1c(-c1cnn(C)c1)cn2[C@@H]1O[C@H](CO)[C@@H](O)[C@H]1O	8	> 64	> 64	> 8	–	–	–
Oc1ncnc2[nH]ncc12 [ALLOPURINOL]	3.5	> 64	> 64	> 18	–	–	–
O=C(Cn1ccnc1[N+](=O)[O-])NCc1ccccc1 [BENZNIDAZOLE]	–	–	–	–	–	–	2.28
